Data on one molecule can be found in US7799924B2, “Substituted homopiperidine, piperidine or pyrrolidine derivatives” (High Point Pharmaceuticals, LLC, priority 2002, dated 2010).

Usually melting point stands for the temperature, or range, at which the solid turns liquid.

As for `CN1CCC(c2noc(-c3ccc(-c4ccccc4)cc3)n2)CC1.CS(=O)(=O)O`, the melting point lay within 222 to 224 °C.
